Literature values in patent US20220331213A1, “ANTIMICROBIAL COMPOSITIONS COMPRISING A BENZOIC ACID ANALOG AND ACID PH BUFFERS” (eHealth Nexus LLC, priority 2021, published 2022).
Values belong to the molecule of their own block, whether it stands above or below them.

Key:
[1] = for pK2 / pK1: aqueous; for pK2: second dissociation of di-/polycarboxylic acid; for pK1: first dissociation of di-/polycarboxylic acid; for pKa (acid dissociation constant): aqueous pKa
rhinovirus = conditions: 2% salicylic acid on skin

Compound: O=C(O)[C@H](O)[C@@H](O)[C@H](O)[C@H](O)CO [gluconic acid]
pKa (acid dissociation constant) [1]: 3.85

Compound: O=C(O)CCCC(=O)O [glutaric acid]
pKa (acid dissociation constant) [1]: 3.76
pK1 [1]: about 4.3
pK2 [1]: about 5.4

Compound: O=C(O)CO [glycolic acid]
pKa (acid dissociation constant) [1]: ~3.8

Compound: O=C(O)c1cccnc1 [nicotinic acid]
pKa (acid dissociation constant) [1]: 4.82

Compound: O=C(O)c1ccccc1O [salicylic acid]
residual anti-rhinovirus activity on the skin (rhinovirus): diminish over 3 hours

Now from value to molecule:

pK2 [1]: about 5.4
Compound: O=C(O)CCCCC(=O)O [adipic acid]

pK1 [1]: about 2.9
Compound: O=C(O)CC(O)(CC(=O)O)C(=O)O [citric acid]
